From patent US10703756B2, “Pyrrolo[2,3-D]pyrimidinyl, pyrrolo[2,3-B]pyrazinyl, pyrrolo[2,3-B]pyridinyl acrylamides and epoxides thereof” (Pfizer Inc., priority 2015, dated 2020)

Experiments:
[1] = tested on: IL-15 induced STAT5 phosphorylation in human whole blood lymphocytes; assay: HWB IL-15 Induced STAT5 Phosphorylation Assay; format: cell-based; details: Lymphocyte, IL-15 final 50 ng/ml, read-out: HWB_IL15 pSTAT5 IC50
Summary of the method: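 Heparinised human whole blood preincubated with compound (0.2% DMSO final) 45 min at 37° C, then stimulated with human IL-15 (50 ng/ml final) for 15 min. After lyse/fix and Perm Buffer III permeabilisation, stained overnight at 4° C with AlexaFluor647 anti-phospho-STAT5; read by flow cytometry gated on total lymphocytes.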

[2] = Stability of JAK3 Covalent Inhibitors in Human Whole Blood; format: in vitro ADME; details: both sexes, 1 μM test compound, 37° C., 180 min incubation, read-out: Human blood stability t1/2
Summary of the method: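 Parent remaining versus time was derived from LC-MS/MS peak area ratios to internal standard after acetonitrile quench. Incubations ran for 180 min at 37° C, in duplicate, with 1 μM test compound in pooled K2-EDTA human blood (two healthy donors).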

| IC50 [1] [nM] | half-life at 1 μM [2] [h] | Compound |
| --- | --- | --- |
| 1530 | 2.02 | C=CC(=O)N1CC(CF)CC(Nc2ncnc3[nH]ccc23)C1 (mixture of isomers) [Example 102, Cis-racemic-1-[3-(fluoromethyl-5-(7H-pyrrolo[2,3-d]pyrimidin-4-ylamino)piperidin-1-yl]prop-2-en-1-one] |
| 1940 | 5.08 | C=CC(=O)N1CC[C@@H](Nc2cnc3[nH]cc(C(=O)NCC)c3n2)[C@@H](C)C1 (racemic) [Example 37, Cis-racemic-2-{[(3S,4R)-1-acryloyl-3-methylpiperidin-4-yl]amino}-N-ethyl-5H-pyrrolo[2,3-b]pyrazine-7-carboxamide] |
| 842 | 4.05 | C=CC(=O)N1CC[C@H](Nc2cnc3[nH]cc(C(=O)NCC)c3n2)C[C@H]1C (racemic) [Example 40, Trans-racemic-2-{[(2R,4S)-1-acryloyl-2-methylpiperidin-4-yl]amino}-N-ethyl-5H-pyrrolo[2,3-b]pyrazine-7-carboxamide] |
| 931 | 5.15 | C=CC(=O)N1CC[C@@H](Oc2cnc3[nH]cc(C(=O)N[C@@H](C)COC)c3n2)C[C@@H]1C (racemic) [Example 71, Trans-racemic-2-{[1-acryloyl-2-methylpiperidin-4-yl]oxy}-N-[(2S)-1-methoxypropan-2-yl]-5H-pyrrolo[2,3-b]pyrazine-7-carboxamide] |
| 2450 | > 5.34 | C=CC(=O)N1CC[C@@H](Oc2cnc3[nH]cc(C(=O)NCC)c3n2)C[C@@H]1C (racemic) [Example 77, Trans-racemic-2-{[1-acryloyl-2-methylpiperidin-4-yl]oxy}-N-ethyl-5H-pyrrolo[2,3-b]pyrazine-7-carboxamide] |
| 5050 | > 6 | C=CC(=O)N1C[C@H](Nc2ncnc3[nH]ccc23)CC[C@@H]1CNC(C)=O (racemic) [Example 88, rac-N-(((2R,5R)-5-((7H-pyrrolo[2,3-d]pyrimidin-4-yl)amino)-1-acryloylpiperidin-2-yl)methyl)acetamide] |
| 1070 | 2.3 | C=CC(=O)N1C[C@@H](CC#N)C[C@@H](Nc2ncnc3[nH]ccc23)C1 (racemic) [Example 105, Cis-racemic-[1-acryloyl-5-(7H-pyrrolo[2,3-d]pyrimidin-4-ylamino)piperidin-3-yl]acetonitrile] |
| 1390 | > 6 | C=CC(=O)N1CCC(Oc2cnc3[nH]cc(C(=O)NC4CCCC4)c3n2)CC1 (racemic) [Example 204, Racemic-2-[(1-acryloylpiperidin-4-yl)oxy]-N-cyclopentyl-5H-pyrrolo[2,3-b]pyrazine-7-carboxamide] |
| 1070 | 3.7 | C=CC(=O)N1CCC(Oc2cnc3[nH]cc(C(=O)NC(C)C4CC4)c3n2)CC1 (racemic) [Example 220, Racemic-2-[(1-acryloylpiperidin-4-yl)oxy]-N-(1-cyclopropylethyl)-5H-pyrrolo[2,3-b]pyrazine-7-carboxamide] |
| 287 | 4.2 | C=CC(=O)N1CC[C@H](Nc2cnc3[nH]cc(C(=O)NCC(C)CC(F)(F)F)c3n2)[C@H](OC)C1 (mixture of isomers) [Example 328, Racemic-2-{[(3R,4S)-1-acryloyl-3-methoxypiperidin-4-yl]amino}-N-(4,4,4-trifluoro-2-methylbutyl)-5H-pyrrolo[2,3-b]pyrazine-7-carboxamide] |
| 1090 | > 6 | C=CC(=O)N1CCC[C@H](Nc2cnc3[nH]cc(C(=O)NCC)c3n2)C1 (single isomer, unassigned) [Example 36] |
| 1160 | 4.38 | C=CC(=O)N1CC[C@@H](Nc2cnc3[nH]cc(C(=O)NCC)c3n2)[C@@H](C)C1 (single isomer, unassigned) [Example 38] |
| 515 | 3.75 | C=CC(=O)N1CC[C@H](Nc2cnc3[nH]cc(C(=O)NCC)c3n2)C[C@H]1C (single isomer, unassigned) [Example 41] |
| 1060 | 4.68 | C=CC(=O)N1CC[C@@H](Nc2cnc3[nH]cc(C(=O)NCC)c3n2)C[C@@H]1C (single isomer, unassigned) [Example 42] |
| 1230 | 4.27 | C=CC(=O)N1CC[C@@H](Nc2cnc3[nH]cc(C(=O)NCC)c3n2)[C@H](C)C1 (single isomer, unassigned) [Example 44] |
| 3580 | 1.8 | C=CC(=O)N1CC[C@@H](Oc2cnc3[nH]cc(C(=O)NCC)c3n2)[C@H](C)C1 (single isomer, unassigned) [Example 47] |
| 738 | > 6 | C=CC(=O)N1CC[C@@H](Oc2cnc3[nH]cc(C(=O)N[C@@H](C)COC)c3n2)C[C@@H]1C (single isomer, unassigned) [Example 73] |
| 2710 | 5.5 | C=CC(=O)N1CC[C@@H](Oc2cnc3[nH]cc(C(=O)NCC)c3n2)C[C@@H]1C (single isomer, unassigned) [Example 79] |
| 659 | 2.28 | C=CC(=O)N1C[C@@H](CF)C[C@@H](Nc2ncnc3[nH]ccc23)C1 (single isomer, unassigned) [Example 103] |
| 287 | 1.87 | C=CC(=O)N1C[C@@H](CC#N)C[C@@H](Nc2ncnc3[nH]ccc23)C1 (single isomer, unassigned) [Example 106] |
| 3130 | 4.42 | C=CC(=O)N1CCC(N(C)c2cnc3[nH]cc(C(=O)NC(C)C)c3n2)CC1 [Example 64, 2-[(1-acryloylpiperidin-4-yl)(methyl)amino]-N-(propan-2-yl)-5H-pyrrolo[2,3-b]pyrazine-7-carboxamide] |
| 2920 | 1.67 | C=CC(=O)N(C)C1CN(c2cnc3[nH]cc(C(=O)N[C@H](C)COC)c3n2)C1 [Example 86, 2-{3-[acryloyl(methyl)amino]azetidin-1-yl}-N-[(2R)-1-methoxypropan-2-yl]-5H-pyrrolo[2,3-b]pyrazine-7-carboxamide] |
| 703 | 1.9 | C=CC(=O)N1C[C@H](COCCC#N)C[C@H](Nc2ncnc3[nH]ccc23)C1 [Example 101, 3-{[(3R,5S)-1-Acryloyl-5-(7H-pyrrolo[2,3-d]pyrimidin-4-ylamino)piperidin-3-yl]methoxy}propanenitrile] |
| 3480 | 2.23 | C=CC(=O)N1C[C@H](CN2CC[C@H](C#N)C2)C[C@H](Nc2ncnc3[nH]ccc23)C1 [Example 108, (S)-1-(((3S,5S)-5-((7H-pyrrolo[2,3-d]pyrimidin-4-yl)amino)-1-acryloylpiperidin-3-yl)methyl)pyrrolidine-3-carbonitrile] |
| 1210 | > 6 | C=CC(=O)N1CCN(c2cnc3[nH]cc(C(=O)N[C@H]4CCO[C@H]4C)c3n2)CC1(C)C [Example 166, 3-({[2-(4-acryloyl-3,3-dimethylpiperazin-1-yl)-5H-pyrrolo[2,3-b]pyrazin-7-yl]carbonyl}amino)-2,5-anhydro-1,3,4-trideoxy-L-threo-pentitol] |
| 322 | 5.43 | C=CC(=O)N1CCC(Nc2cnc3[nH]cc(C(=O)NCC4CC4)c3n2)CC1 [Example 172, 2-[(1-acryloylpiperidin-4-yl)amino]-N-(cyclopropylmethyl)-5H-pyrrolo[2,3-b]pyrazine-7-carboxamide] |
